One series addresses BTK (Mus musculus, UniProt P35991). Put plainly: BTK inhibition assay of benzopyran derivatives. Type of series: biochemical. The conditions noted are these: for IC50: BTK inhibitory activity; for BTK inhibitory activity in words: kinase assays.
In a further series the test system is NALM-6 cells. Put plainly: Apoptosis induction, TUNNEL and flow cytometric assay. Type of series: cell-based, human. The conditions noted are these: compound alone, 100 μM. In general terms: Flow cytometry measures light scatter and fluorescence of single cells or particles in a stream.
The test system of the next series is human leukemia cells. The experiment in a line: Ceramide or vincristine sensitivity of human leukemia cells. Type of series: cell-based. The note with it: co-administration with chemotherapeutic agent. The source says:
FIG. 23: Effects of DDE-11 on ceramide or vincristine—sensitivity of human leukemia cells. Studies were done as described above for FIG. 17, but using DDE 11 as the BTK inhibitor.

For another series, the system named is RBL-2H3 rat mast cells. The experiment in a line: IgE/FcεRI receptor mediated leukotriene C4 release, RBL-2H3 mast cells. Type of series: cell-based. The note with it: RBL-2H3, IgE/DNP-BSA challenge, 30 min pre-incubation, 1-100 μM, N = 3-4, read-out: EC50 (mean ± SEM), inhibition of leukotriene C4 release. How it is done:
Mast Cell Cultures. RBL-2H3 mast cells were a gift from Dr. Reuben P. Siraganian (Laboratory of Microbiology and Immunology, National Institute of Dental Research, National Institute of Health). The cells were maintained as monolayer cultures in 75- or 150-cm^2 flask in Eagle's essential medium supplemented with 20% fetal calf serum. Human fetal livers (16 to 21 weeks of gestational age) were obtained from prostaglandin-induced human abortuses. Subsequently, single cell suspensions were prepared and mononuclear cells were isolated by centrifugation on Ficoll-Hypaque gradients as described (Malaviya, R., et al., (1999) J Biol Chem, 274, 27028-27038). Isolated cells were cultured for 8 weeks in the presence of 100 ng/ml rhSCF, 2 ng/ml rhIL-4 (Malaviya, R., et al., (1999) J Biol Chem, 274, 27028-27038; Xia, H. Z., et al., (1997) J Immunol, 159, 2911-2921). Culture medium was replaced with fresh medium once a week for the first 2 weeks and twice a week thereafter. All human tissue specimens were used following the guidelines of the Parker Hughes Institute Institutional Review Board on the Use of Human Subjects in Research for secondary use of pathologic or surgical tissue. At the end of the 8 weeks the fetal liver derived human mast cell culture contained 70-90 percent mast cells, based on toluidine blue and tryptase staining (Xia, H. Z., et al., (1997) J Immunol, 159, 2911-2921).
Stimulation of Mast Cells. RBL-2H3 rat mast were sensitized with monoclonal anti-DNP IgE antibody (0.24 mg/ml) for 1 h at 37° C. in a 48-well tissue culture plate. Unbound IgE was removed by washing the cells with PIPES-buffered saline. After washing, PIPES-buffered saline containing 1 mM calcium chloride was added to the monolayers of the RBL-2H3 cells. The cells were challenged with 20 ng/ml DNP-BSA for 30 min at 37° C. The plate was centrifuged at 200 g for 10 min at 4° C. Supernatants were removed and saved. Fetal liver-derived human mast cells were resuspended in culture medium at a cell density of 5×10^6/ml and sensitized with human IgE (150 μg/ml) for 3 h at 4° C. After sensitization the cells were washed with tyrode buffer containing 1 mM calcium and 1 mM magnesium and challenged with mouse monoclonal anti-human IgE (40 μg/ml) for 30 min at 37° C. To study the effect of test drugs, RBL-2H3 rat mast cells or human mast cells were incubated with the drugs at the indicated concentrations or vehicle for 30 min prior to antigen challenge.
Mediator Release Assay. Leukotriene C4 levels were estimated in cell free supernatants of mast cells by immunoassay (Malaviya, R. and Abraham, S. N., (1995) Methods Enzymol, 253, 27-43).
Mast cells release large amounts of leukotrienes upon IgE receptor ligation. Because of the reported ability of LFM as a mast cell inhibitor, we utilized 13 analogues of LFM (Table 1) and examined their effect on IgE/FcεERI receptor mediated mast cell leukotriene C4 release. RBL-2H3 cells, a mucosal mast cell line, were treated with 5 different concentrations of the compounds ranging from 1 μM to 100 μM or vehicle for 30 min before challenge with antigen (DNP-BSA) at 37° C. Leukotriene C4 release was quantitated in the extracellular medium employing a previously described ELISA (Malaviya, R. and Abraham, S. N., (1995) Methods Enzymol, 253, 27-43).

What is called IC50 is the point on the concentration scale where inhibition reaches its midpoint. A word on the EC50: it is the concentration giving half of the maximal effect. As a reminder, the melting point is the temperature, or range, at which the solid turns liquid.

BTK, sequence (P35991 whole entry): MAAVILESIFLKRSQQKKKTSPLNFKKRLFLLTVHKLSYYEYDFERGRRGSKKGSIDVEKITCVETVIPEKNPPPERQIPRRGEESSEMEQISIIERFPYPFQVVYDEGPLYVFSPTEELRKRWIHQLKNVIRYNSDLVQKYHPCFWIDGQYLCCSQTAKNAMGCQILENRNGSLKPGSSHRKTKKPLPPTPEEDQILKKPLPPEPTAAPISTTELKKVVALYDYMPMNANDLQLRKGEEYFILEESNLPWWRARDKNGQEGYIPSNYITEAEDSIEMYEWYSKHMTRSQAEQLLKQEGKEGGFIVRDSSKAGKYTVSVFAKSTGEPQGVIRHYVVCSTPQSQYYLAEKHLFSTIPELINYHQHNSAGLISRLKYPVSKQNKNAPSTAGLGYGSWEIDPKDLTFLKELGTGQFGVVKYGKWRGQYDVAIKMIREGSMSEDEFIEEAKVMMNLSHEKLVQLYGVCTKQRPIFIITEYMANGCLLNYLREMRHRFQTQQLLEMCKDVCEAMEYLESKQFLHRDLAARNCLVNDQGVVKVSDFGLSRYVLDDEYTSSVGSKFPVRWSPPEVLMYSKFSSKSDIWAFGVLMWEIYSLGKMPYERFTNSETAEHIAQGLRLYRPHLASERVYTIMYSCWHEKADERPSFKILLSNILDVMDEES

Turning to `CCCc1cc(=O)oc2c(C(=O)CC)c(O)cc(O)c12` [DDE11, 5,7-Dihydroxy-8-propanoyl-4-propyl-2H-1-benzopyran-2-one], at BTK, the IC50 is less than 36.2 µM and the “BTK inhibitory activity in words” value is reported as “potent BTK inhibitors”. For the same compound, the apoptosis induction entry with NALM-6 cells is recorded as “induces apoptosis”. Also, the “cytotoxicity of C2-CER and vincristine on co-administration” value with human leukemia cells was “increaseed the cytotoxicity”.

In the case of `CCCc1cc(=O)oc2cc(O)cc(O)c12` [DDE181, 5,7-Dihydroxy-4 propyl-2H-1-benzopyran-2-one], at BTK, the IC50 was less than 45.4 µM and the “BTK inhibitory activity in words” value is recorded as “potent BTK inhibitors”.

For the compound `CCCc1cc(=O)oc2c(C=O)c(O)cc(O)c12` [DDE213, 5,7-Dihydroxy-8-carboxaldehyde-4-propyl-2H-1-benzopyran-2-one], on BTK, the IC50 is less than 40.3 µM and the “BTK inhibitory activity in words” value is recorded as “potent BTK inhibitors”.

With `CCc1cc(=O)oc2cc(O)cc(O)c12` [DDE214, 5,7-Dihydroxy-4-ethyl-2H-1-benzopyran-2-one], at BTK, the IC50 is less than 48.5 µM and the “BTK inhibitory activity in words” value is on record as “potent BTK inhibitors”.

Regarding `CCCc1cc(=O)oc2c(C(=O)CC)c(OC)cc(OC)c12` [DDE229], the IC50 against BTK is more than 329 µM.

`O=c1cc(-c2ccccc2)c2c(O)cc(O)cc2o1` [DDE270, 5,7-Dihydroxy-4-phenyl-2H-1-benzopyran-2-one]: the IC50 against BTK was 98.3 µM.

`CCCc1cc(=O)oc2c(C(C)=O)c(O)cc(O)c12` [DDE271, 5,7-Dihydroxy-8-acetyl-4-propyl-2H-1-benzopyran-2-one] displayed an IC50 against BTK of more than 381 µM.

Regarding `CCCc1cc(=O)oc2c(C(=O)C(C)C)c(O)cc(O)c12` [DDE272], the half-inhibitory concentration (IC50) at BTK is more than 344 µM.

The compound `CCCc1cc(=O)oc2c(C(=O)c3ccccc3)c(O)cc(O)c12` [DDE355] had an IC50 against BTK of more than 308 µM.

Regarding `CC(O)=C(C#N)C(=O)Nc1ccc(C(F)(F)F)cc1` [LFM, α-Cyano-β-hydroxy-β-methyl-N-[4-(trifluoromethyl)phenyl]-propenamide, reference compound], the EC50 in the series on RBL-2H3 rat mast cells was 34 ± 14.5 µM.

`CC(O)=C(C#N)C(=O)Nc1ccc(Br)cc1` [LFM-A1, α-Cyano-β-hydroxy-β-methyl-N-(4-bromophenyl)propenamide] gave a melting point of 213 to 214 °C. The EC50 in the series with RBL-2H3 rat mast cells was found to be 64 ± 13.9 µM.

In turn, `CC(O)=C(C#N)C(=O)Nc1ccc(Cl)cc1` [LFM-A2, α-Cyano-β-hydroxy-β-methyl-N-(4-chlorophenyl)propenamide] came in with a melting point of 209 to 211 °C. For the same compound, in the series on RBL-2H3 rat mast cells, the half-maximal effective concentration (EC50) came to 58 ± 13 µM.

`CC(O)=C(C#N)C(=O)Nc1ccc(F)cc1` [LFM-A3, α-Cyano-β-hydroxy-β-methyl-N-(4-fluorophenyl)propenamide] returned a melting point of 165 to 166 °C. Besides, the EC50 with RBL-2H3 rat mast cells was more than 100 µM.

As to `CC(O)=C(C#N)C(=O)Nc1ccccc1C(F)(F)F` [LFM-A4, α-Cyano-β-hydroxy-β-methyl-N-[2-(trifluoromethyl)phenyl]-propenamide], the melting point lay in the range of 61 to 63 °C. Moreover, in the series on RBL-2H3 rat mast cells, the EC50 is more than 100 µM.

With `CC(O)=C(C#N)C(=O)Nc1ccccc1Br` [LFM-A5, α-Cyano-β-hydroxy-β-methyl-N-(2-bromophenyl)propenamide], the melting point fell in the range of 98 to 100 °C. Further, the EC50 in the series with RBL-2H3 rat mast cells came out at 46 ± 10 µM.

With `CC(O)=C(C#N)C(=O)Nc1ccccc1Cl` [LFM-A6, α-Cyano-β-hydroxy-β-methyl-N-(2-chlorophenyl)propenamide], the melting point lay in the range of 93 to 94 °C. Besides, the concentration for a half-maximal effect (EC50) with RBL-2H3 rat mast cells was more than 100 µM.

`CC(O)=C(C#N)C(=O)Nc1ccccc1F` [LFM-A7, α-Cyano-β-hydroxy-β-methyl-N-(2-fluorophenyl)propenamide] showed a melting point of 118 to 119 °C. Besides, in the series with RBL-2H3 rat mast cells, the EC50 was more than 100 µM.

Take `CC(O)=C(C#N)C(=O)Nc1cccc(Br)c1` [LFM-A9, α-Cyano-β-hydroxy-β-methyl-N-(3-bromophenyl)propenamide]: the melting point lay in the range of 184 to 185 °C. Moreover, the EC50 with RBL-2H3 rat mast cells is more than 100 µM.

As for `CC(O)=C(C#N)C(=O)Nc1cccc(Cl)c1` [LFM-A10, α-Cyano-β-hydroxy-β-methyl-N-(3-chlorophenyl)propenamide], the melting point lay within 184 to 187 °C. Also, the EC50 in the series on RBL-2H3 rat mast cells amounted to 51 ± 12 µM.

The compound `CC(O)=C(C#N)C(=O)Nc1cccc(F)c1` [LFM-A11, α-Cyano-β-hydroxy-β-methyl-N-(3-fluorophenyl)propenamide] had a melting point of 136 to 138 °C. In the series with RBL-2H3 rat mast cells, the EC50 was more than 100 µM.

`CC(O)=C(C#N)C(=O)Nc1ccc(OC(F)(F)F)cc1` [LFM-A12, α-Cyano-β-hydroxy-β-methyl-N-[4-(trifluoromethoxy)phenyl]-propenamide] came in with a melting point of 182 to 183 °C. Besides, the EC50 in the series with RBL-2H3 rat mast cells stood at 30 ± 5.6 µM.

Consider `CC(O)=C(C#N)C(=O)Nc1ccccc1` [LFM-A14, α-Cyano-β-hydroxy-β-methyl-N-(phenyl)propenamide], for which the melting point was 134 to 135 °C. Besides, the EC50 in the series with RBL-2H3 rat mast cells was more than 100 µM.

In turn, `C/C(O)=C(\C#N)C(=O)Nc1ccc(S(C)(=O)=O)cc1` [LFM-A15, α-Cyano-β-hydroxy-β-methyl-N-[4-(methylsulfonyl)phenyl]-propenamide] registered a melting point of 205 to 206 °C.

Take `C/C(O)=C(\C#N)C(=O)Nc1cccc(S(C)(=O)=O)c1` [LFM-A16]: the melting point fell in the range of 213 to 214 °C.

Consider `C/C(O)=C(\C#N)C(=O)Nc1ccc(OC(F)(F)F)c(Br)c1` [LFM-A17, α-Cyano-β-hydroxy-β-methyl-N-[3-bromo-4-(trifluoromethoxy)-phenyl]propenamide], for which the melting point was 178 to 179 °C.

With `C/C(O)=C(\C#N)C(=O)Nc1cc(Cl)ccc1Cl` [LFM-A18, α-Cyano-β-hydroxy-β-methyl-N-(2,5-dichlorophenyl)-propenamide], the melting point was in the range of 143 to 144 °C.

As to `C/C(O)=C(\C#N)C(=O)Nc1ccc(Br)cc1Br` [LFM-A19, α-Cyano-β-hydroxy-β-methyl-N-(2,4-dibromophenyl)-propenamide], the melting point was found to be 181 °C.

With `C/C(O)=C(\C#N)C(=O)Nc1ccc(Cl)cc1Cl` [LFM-A20, α-Cyano-β-hydroxy-β-methyl-N-(2,4-dichlorophenyl)-propenamide], the melting point is 143 to 144 °C.

(Values after US6753348B2, “BTK inhibitors and methods for their identification and use” (Parker Hughes Institute, priority 1998, dated 2004).)
